What was measured:
2102EP-R = test: Flow cytometry apoptosis (Annexin V/PI), 2102EP-R; assay type: cell-based, Human; conditions: EC50, 16 h, compared to the parental cell line
[1] = system: phosphorylated kinase targets in 2102EP cells; test: Proteome Profiler Human Phospho-Kinase Array; assay type: cell-based; conditions: 16 h
Protocol: For the detection of phosphorylated kinase targets, the Proteome Profiler Human Phospho-Kinase Array Kit (R&D Systems, Abingdon, UK) was used according to the manufacturer’s instructions. The ChemiDoc Imaging System (Bio-Rad Laboratories, Feldkirchen, Germany) was used for detection. 2102EP cells were harvested after 16 h of treatment with the epi-drugs. Pixel density was analyzed using Fiji ImageJ 1.53c.

[2] = system: histone modifications in 2102EP cells; test: Mass spectrometry analysis of histone modifications (Mod Spec); assay type: cell-based, Human
Protocol: 2102EP cells were treated with the EC50 concentrations for Quisinostat, JIB-04, Chaetocin, MZ-1, LP99, PRT4165, GSK343 and DMSO as solvent control. The cells were harvested via trypsinization after 16 h. The mass spectrometric analysis of histone modifications was outsourced to the Mod Spec service by Active Motif (Carlsbad, CA, USA). Histone extraction and mass spectrometric analysis was performed as described previously. Raw data were transformed into z-scores as the input. The heatmap was generated in R using ‘pheatmap’ with default settings and provided by Active Motif.

[3] = system: transcriptome of 2102EP cells; test: RNA sequencing; assay type: cell-based, Human; conditions: 16 h
Protocol: Transcriptome analysis has been performed as previously described at the core facility ‘Genomics & Transcriptomics’ (Prof. Dr. Karl Köhrer, Biomedical Research Center, Heinrich Heine University, Düsseldorf, Germany) and has been publicly shared via GEO (https://www.ncbi.nlm.nih.gov/geo/, GSE189472). RNA samples were quantified and measured as previously described. Statistical analyses were performed using the ‘Differential Expression in two groups’ tool (version 1.02) (Qiagen) and the resulting p values were corrected for multiple testing by false discovery rate (FDR). Accompanying PCA and heatmap were generated using Qlucore Omics Explorer 3.7 (Qlucore AB, Lund, Sweden). Values of solvent controls wereaveraged from the studies GSE189472, GSE190792 and GSE190022 [95].

YST (GCT72) = test: Flow cytometry apoptosis (Annexin V/PI), YST; assay type: cell-based, Human; conditions: EC50, 16 h
Protocol: (§1) For Annexin V/PI staining, cells were washed with Annexin V Binding Buffer before being resuspended in 70 µl Annexin V Binding Buffer and 2.5 μl Annexin V FITC-conjugate (both Miltenyi Biotec, Bergisch Gladbach, Germany) and 15 µg PI (Sigma-Aldrich, Taufkirchen, Germany) and incubated in the dark at room temperature for 15 min. 500 µl of Annexin V Binding Buffer was added before measurement. For the cell cycle analysis, cells were washed with PBS (phosphate buffered saline), fixed by ice cold 70% ethanol and stained with 2 µg/ml PI and 200 µg/ml RNaseA (Quiagen, Hilden, Germany 100 mg/ml) in PBS shortly before every measurement. At least 5 × 10^4 cells were counted and analyzed using the MACSQuant software v 2.13.0.

GCT cells = test: Flow cytometry cell cycle (PI), GCT cells; assay type: cell-based, Human; conditions: EC50, 16 h
Protocol: as §1

GCT cell lines = test: XTT cell viability assay, GCT cell lines (pre-screen / summary); assay type: cell-based, Human; conditions: first pre-screen, XTT; read-out: EC50
Protocol: The […] (XTT) assays were performed as described previously. In summary, for GCT and fibroblast cell lines 5 × 10^3 cells (3 × 10^3 for UC, PCa and RCC cell lines) per 96-well were seeded and different drug concentrations (see Additional file 2: Fig. S2, Additional file 3: Fig. S3) or corresponding solvents were added to the cells the following day. For drug details see Additional file 12: Table S2 C. Each condition was analyzed in four technical replicates and EC50 values were calculated by GraphPad Prism v8.

CC (JAR) = test: Flow cytometry apoptosis (Annexin V/PI), CC; assay type: cell-based, Human; conditions: EC50, 16 h
Protocol: as §1

fibroblast control cells = test: Flow cytometry apoptosis (Annexin V/PI), fibroblasts; assay type: cell-based, Human; conditions: EC50, 16 h
Protocol: as §1

[4] = 2102EP cells, Mod Spec raw data
[5] = sorted data log2>±1.5, FDR p<0.05

## Cc1cc(=O)n(C)c2cc(N3C(=O)CC[C@H](NS(=O)(=O)CC(C)C)[C@H]3c3ccc(Cl)cc3)ccc12 [LP99]
2102EP-R
  apoptosis induction in 2102EP-R: did not induce apoptosis
[1]
  CREB, STAT3 and STAT5 phosphorylation and total levels of β-Catenin and HSP60: decreased
  ERK1/2 phosphorylation: decreased
[2]; [4]
  H1.4: K25AC, % of peptide pool: 0.009028%
  H1.4: K25ME1, % of peptide pool: 2.269%
  H1.4: K25ME2, % of peptide pool: 0.02267%
  H1.4: K25ME3, % of peptide pool: 0.00557%
  H1.4: K25UN, % of peptide pool: 97.6933%
  H2A1: K13AC, % of peptide pool: 0.01093%
  H2A1: K13UN, % of peptide pool: 99.9891%
  H2A1: K15AC, % of peptide pool: 0.001748%
  H2A1: K15UB, % of peptide pool: 0%
  H2A1: K15UN, % of peptide pool: 99.9983%
  H2A3: K13AC, % of peptide pool: 0.03196%
  H2A3: K13UN, % of peptide pool: 99.968%
  H2A3: K15AC, % of peptide pool: 0.03362%
  H2A3: K15UB, % of peptide pool: 0%
  H2A3: K15UN, % of peptide pool: 99.9664%
  H2A: K5AC, % of peptide pool: 12.5375%
  H2A: K5UN, % of peptide pool: 87.4625%
  H2A: K9AC, % of peptide pool: 1.353%
  H2A: K9UN, % of peptide pool: 98.6475%
  H2A: K36AC, % of peptide pool: 0.0347%
  H2A: K36UN, % of peptide pool: 99.9653%
  H3: K9AC, % of peptide pool: 0.6876%
  H3: K9ME1, % of peptide pool: 38.1257%
  H3: K9ME2, % of peptide pool: 23.7135%
  H3: K9ME3, % of peptide pool: 2.367%
  H3: K9UN, % of peptide pool: 35.1066%
  H3: K14AC, % of peptide pool: 29.2531%
  H3: K14UN, % of peptide pool: 70.7469%
  H3: K18AC, % of peptide pool: 10.1375%
  H3: K18ME1, % of peptide pool: 0.2014%
  H3: K18UN, % of peptide pool: 89.6611%
  H3: K23AC, % of peptide pool: 16.6835%
  H3: K23ME1, % of peptide pool: 0.02213%
  H3: K23UN, % of peptide pool: 83.2943%
  H3: K56AC, % of peptide pool: 0.1265%
  H3: K56ME1, % of peptide pool: 0.3038%
  H3: K56UN, % of peptide pool: 99.5697%
  H3: K64AC, % of peptide pool: 0.01464%
  H3: K64UN, % of peptide pool: 99.9854%
  H3: K79AC, % of peptide pool: 0.6828%
  H3: K79ME1, % of peptide pool: 14.7289%
  H3: K79ME2, % of peptide pool: 6.113%
  H3: K79ME3, % of peptide pool: 8.372%
  H3: K79UN, % of peptide pool: 70.1029%
  H3: K122AC, % of peptide pool: 0.1106%
  H3: K122UN, % of peptide pool: 99.8894%
  H3: Q19ME1, % of peptide pool: 0.008159%
  H3: Q19UN, % of peptide pool: 99.9918%
  H3: Q55ME1, % of peptide pool: 0.125%
  H3: Q55UN, % of peptide pool: 99.875%
  H3: R42ME2, % of peptide pool: 2.022%
  H3: R42UN, % of peptide pool: 97.9783%
  H3: R49ME2, % of peptide pool: 5.836%
  H3: R49UN, % of peptide pool: 94.1642%
  H3R2UN: K4AC, % of peptide pool: 0.0493%
  H3R2UN: K4ME1, % of peptide pool: 17.3555%
  H3R2UN: K4ME2, % of peptide pool: 0.1607%
  H3R2UN: K4ME3, % of peptide pool: 0.06122%
  H3R2UN: K4UN, % of peptide pool: 82.3733%
  H3R2UN: Q5ME1, % of peptide pool: 0.0589%
  H3R2UN: Q5UN, % of peptide pool: 99.9411%
  H3.1: K27AC, % of peptide pool: 1.848%
  H3.1: K27ME1, % of peptide pool: 50.2872%
  H3.1: K27ME2, % of peptide pool: 19.0002%
  H3.1: K27ME3, % of peptide pool: 2.587%
  H3.1: K27UN, % of peptide pool: 26.2781%
  H3.1: K36AC, % of peptide pool: 0.1934%
  H3.1: K36ME1, % of peptide pool: 15.1441%
  H3.1: K36ME2, % of peptide pool: 47.7578%
  H3.1: K36ME3, % of peptide pool: 20.1942%
  H3.1: K36UN, % of peptide pool: 16.7105%
  H3.3: K27AC, % of peptide pool: 4.526%
  H3.3: K27M, % of peptide pool: 0%
  H3.3: K27ME1, % of peptide pool: 50.6483%
  H3.3: K27ME2, % of peptide pool: 13.3962%
  H3.3: K27ME3, % of peptide pool: 4.205%
  H3.3: K27UN, % of peptide pool: 27.2241%
  H3.3: K36AC, % of peptide pool: 1.988%
  H3.3: K36ME1, % of peptide pool: 13.5047%
  H3.3: K36ME2, % of peptide pool: 50.9616%
  H3.3: K36ME3, % of peptide pool: 19.8606%
  H3.3: K36UN, % of peptide pool: 13.6847%
  H4: K5AC, % of peptide pool: 6.718%
  H4: K5UN, % of peptide pool: 93.2819%
  H4: K8AC, % of peptide pool: 9.0591%
  H4: K8UN, % of peptide pool: 90.9409%
[2]; 2102EP cells, Mod Spec raw data, histone H4 K12 acetylated
  H4: K12AC, % of peptide pool: 5.085 % of peptide pool
[2]; 2102EP cells, Mod Spec raw data, histone H4 K12 unmodified
  H4: K12UN, % of peptide pool: 94.9152 % of peptide pool
[2]; 2102EP cells, Mod Spec raw data, histone H4 K16 acetylated
  H4: K16AC, % of peptide pool: 42.3745 % of peptide pool
[2]; 2102EP cells, Mod Spec raw data, histone H4 K16 unmodified
  H4: K16UN, % of peptide pool: 57.6255 % of peptide pool
[2]; 2102EP cells, Mod Spec raw data, histone H4 K20 acetylated
  H4: K20AC, % of peptide pool: 21.754 % of peptide pool
[2]; 2102EP cells, Mod Spec raw data, histone H4 K20 dimethylated
  H4: K20ME2, % of peptide pool: 43.6517 % of peptide pool
[2]; 2102EP cells, Mod Spec raw data, histone H4 K20 monomethylated
  H4: K20ME1, % of peptide pool: 4.449 % of peptide pool
[2]; 2102EP cells, Mod Spec raw data, histone H4 K20 trimethylated
  H4: K20ME3, % of peptide pool: 1.292 % of peptide pool
[2]; 2102EP cells, Mod Spec raw data, histone H4 K20 unmodified
  H4: K20UN, % of peptide pool: 28.8535 % of peptide pool
[2]; 2102EP, EC50, 16 h, vs solvent control
  change of histone modifications of the expected mode of action (Mod Spec): general decrease in histone acetylation
[3]; [5]
  GJD3 Log2 fold change vs. DMSO: 3.31
  GLIPR1L1 Log2 fold change vs. DMSO: -3.59
  GOLGA6A Log2 fold change vs. DMSO: -4.35
  MTRNR2L8 Log2 fold change vs. DMSO: 3.16
  NCKAP1L Log2 fold change vs. DMSO: -3.90
  TAC1 Log2 fold change vs. DMSO: 3.33
[3]; unsorted data
  A1BG Log2 fold change vs. DMSO: 0.41
  A1CF Log2 fold change vs. DMSO: 1.13
  A2M Log2 fold change vs. DMSO: -0.80
YST (GCT72)
  apoptosis induction in GCT72: negligible
GCT cells
  cell cycle phase accumulation in GCT cells: accumulated in the G0/G1 phase
GCT cell lines
  EC50: ≤ 50 µM
CC (JAR)
  apoptosis induction in JAR: negligible

## Cc1ccc(-n2sc3ccccc3c2=O)cc1 [PBIT]
Fibroblast control cells
  apoptosis induction in fibroblast control cells: only a weak apoptosis induction
YST (GCT72)
  apoptosis induction in GCT72: negligible
GCT cells
  cell cycle phase accumulation in GCT cells: accumulated in the G0/G1 phase
GCT cell lines
  EC50: ≤ 50 µM
CC (JAR)
  apoptosis induction in JAR: negligible
